Laboratory results published in patent US6525042B1 (Daiichi Pharmaceutical Co., Ltd., priority 1997, dated 2003).
Blank lines part the entries; values can stand above or below the molecule they belong to.

Legend:
[1] = target: T1, human FXa (Homo sapiens, UniProt P00742); test: Measurement of Ki value against FXa; format: biochemical; conditions: substrate S2222, Dixon plot
T1 construct: purchased Cosmobio-ERL HFXa-1011
Procedure: Measurement of Ki Value Against FXa
In a 96-well microtiter plate, 5 μl of a sample solution, 5 μl of purified water, 40 μl of a 100 mM tris −200 mM sodium chloride −0.2% BSA (pH: 7.4) buffer and 10 μl of 0.05 U/ml human FXa (product of Enzyme Research, dissolved in and diluted with a measuring buffer) were poured, followed by the addition of 40 μl of S2222 (product of Chromogenix, final concentration: 75, 150, 300 and 600 μM). […] The median of six values available by solving simultaneous equations was designated as a Ki value.

[2] = target: T2, human thrombin (Homo sapiens, UniProt P00734); test: Measurement of Ki value against thrombin; format: biochemical; conditions: Dixon plot
T2 construct: purchased Sigma Chemical
Procedure: Measurement of Ki Value Against Thrombin
In a 96-well microtiter plate, 5 μl of a sample solution, 5 μl of purified water, 40 μl of a 100 mM tris −200 mM sodium chloride −0.2% BSA (pH: 7.4) buffer and 10 μl of 5 U/ml human thrombin (product of Sigma Chemical, dissolved in and diluted with a measuring buffer) were poured in portions, followed by the addition of 40 μl of S2226 (product of Chromogenix, final concentration: 50, 100, 200 and 400 μM). […] The median of six values available by solving simultaneous equations was designated as a Ki value.

[3] = tested on: plasma; test: Oral administration test: coagulation extending action (prothrombin time); format: in vivo; conditions: rat, 30 mg/kg, one hour after the administration
Procedure: (§1) Test of Oral Administration
(§2) A sample was dissolved or suspended in a 0.5% (w/v) methyl cellulose solution and the resulting solution or suspension was orally administered (10 ml/kg) to a 8 to 11 week-old rat (Wistar male rat (Nippon SLC Co., Ltd.)) which had been fasted overnight. After administration of the sample, the blood to which 1/10 part by weight of 3.13% (w/v) sodium citrate had been added was collected from the cervical vein. The rat was awakened except during the blood collection. Feeding was re-started 6 hours after the blood collection. From each blood sample, the plasma was separated by centrifugal separation and anti-FXa activity in the blood and prothrombin time extending action were measured.
2-2) Measurement of Coagulation Extending Action in Oral Administration (Measurement of Prothrombin Time)
To 20 μl of the plasma, 40 μl of cynplastin (Organon Teknika/USA) were added and the coagulation time was measured. The ratio of the prothrombin time after the administration of the sample relative to the prothrombin time before the administration of the sample was designated as an index of the coagulation extending action.

[4] = target: human Factor Xa (Homo sapiens, UniProt P00742); test: Oral administration test: anti-FXa activity in the plasma; format: in vivo; conditions: rat, 30 mg/kg, one hour after the administration
Sequence of human Factor Xa (P00742 235-488 limits assumed): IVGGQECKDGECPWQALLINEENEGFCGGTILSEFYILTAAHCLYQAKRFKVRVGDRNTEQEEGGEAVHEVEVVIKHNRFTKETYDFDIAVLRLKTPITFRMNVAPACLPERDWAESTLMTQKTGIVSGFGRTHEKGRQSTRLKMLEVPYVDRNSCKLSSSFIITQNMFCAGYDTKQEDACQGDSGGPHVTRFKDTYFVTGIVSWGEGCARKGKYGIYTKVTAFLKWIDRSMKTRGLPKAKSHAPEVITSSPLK
Sequence of human Factor Xa (P00742 41-179 partner limits assumed): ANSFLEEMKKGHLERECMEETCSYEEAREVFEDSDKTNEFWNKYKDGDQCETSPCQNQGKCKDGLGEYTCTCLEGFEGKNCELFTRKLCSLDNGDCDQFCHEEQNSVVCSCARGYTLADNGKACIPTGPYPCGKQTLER
Procedure: as §1, §2
2-1) Measurement of Anti-FXa Activity in the Plasma
In a 96-well plate, 5 μl of the plasma was poured in portions, followed by the addition of 55 μl of a 8:1:2 mixture of 100 mM tris −200 mM sodium chloride −0.2% BSA (pH 7.4) buffer, water and 0.1 U/ml human Factor Xa solution (dissolved in and diluted with a measuring buffer) and 40 μl of 750 μM S-2222. After stirring for 10 seconds in a plate mixer, an increase (mOD/min) of the absorbance at 405 nm was measured at room temperature. The inhibitory ratio was calculated as follows:
An inhibitory ratio (%)=(1−OD of sample÷OD of control on average relative to blood-collecting time of sample)×100

[5] = target: T1, human FXa; test: FXa inhibitory action (IC50), end point method; format: biochemical; conditions: 37° C. for 15 minutes, read-out: FXa 50% inhibitory concentration
Procedure: (§3) Measurement of FXa Inhibitory Action (IC50)
A sample solution (100 μl), 280 μl of a 100 mM tris −200 mM sodium chloride (pH 7.4) buffer and 100 μl of a 1 mM S2222 (Chromogenix Corp.) solution were mixed and heated at 37° C. To the resulting mixture, 20 μl of 0.625 U/ml human FXa (“Cosmobio-ERL HFXa-1011”, dissolved in and diluted with a measuring buffer) were added, followed by heating at 37° C. for 15 minutes. To the resulting mixture, 100 μl of 1M citric acid were added and then, the absorbance at 405 nm was measured. The mixture to which only the diluting solvent for the sample was added instead of the sample was used as a blank, while the mixture to which 1M citric acid was added prior to the addition of FXa was used as a control. The concentration of the sample (IC50) at which 50% of FXa activity was inhibited was determined and it was designated as an index of FXa inhibitory action.

[6] = tested on: tissue thromboplastin-derived rat DIC model; test: Anti-thrombus effects in a tissue thromboplastin-derived rat DIC model; format: in vivo; conditions: oral 30 mg/kg, tissue thromboplastin one hour after the sample
Procedure: Testing Method of Anti-thrombus Effects in a Tissue Thromboplastin-derived Rat DIC Model
A rat was anesthetized with halothane. After the collection of the blood (for measurement of the number of platelets, anti-FXa activity and TAT) from its cervical vein by using 1/10 part by weight of 3.13% (w/v) sodium citrate, the sample was administered orally. At an appropriate time after the administration, the rat was intraperioneally anesthetized (1 mg/kg) with Nembutal (50 mg/ml pentobarbital sodium, Abott Laboratories), followed by intravenous drip of 0.2 U/ml of tissue thromboplastin (Thromboplastin C plus, Dade Diagnostics of P. R. Inc.,) from the femoral vein for one minute at a rate of 2.5 to 3.0 ml/kg/min. The blood was collected (for measuring the number of platelets and anti-FXa activity) from the cervical vein 10 minutes after the intravenous drip and the blood was collected (for measuring TAT) from the cervical vein 20 minutes after the blood collection. The number of platelets, anti-FXa activity in the plasma and TAT concentration of each blood sample were measured. The number of the platelets was measured by an automatic cytometer, while the anti-FXa activity in the plasma was measured in a similar manner to that described in Test 7.
For the measurement of TAT (Thrombin-anti Thrombin=complex), EnzygnostR TAT micro kit (Boering Verke) was employed.

[7] = target: T1, human FXa; test: FXa inhibitory action (IC50), reaction rate method; format: biochemical; conditions: room temperature, read-out: FXa 50% inhibitory concentration
Procedure: as §3
In a 96-well microtiter plate, 10 μl of a sample solution, 40 μl of a 100 mM tris −200 mM sodium chloride −0.2% BSA (pH: 7.4) buffer and 10 μl of 0.05 U/ml human FXa (“Cosmobio-ERL HFXa-1011”, dissolved in and diluted with a measuring buffer) were poured in portions, followed by the addition of […] of S2222 (product of Chromogenix). An increase (mOD/min) in the absorbance at 405 nm was measured at room temperature. From the below-described equation, an inhibitory ratio % of each sample was determined. On a logarithmic probability paper, the final concentration of the sample and inhibitory ratio % were plotted along the abscissa and the ordinate, respectively, whereby a 50% inhibitory concentration (IC50) was determined.
(§4) Inhibitory ratio (%)=(1−OD of sample÷OD of control)×100

[8] = tested on: Plasma; test: Coagulation extending action (prothrombin time) in plasma; format: biochemical
Procedure: Measurement of Coagulation Extending Action (Measurement of Prothrombin Time)
Plasma (20 μl) and 20 μl of a sample solution were mixed. To the resulting mixture, […] of cynplastin (product of Organon Teknika) were added and the coagulation time was measured. The concentration of the sample (CT2) at which the coagulation time of the plasma was increased twice was found and it was designated as an index of anticoagulant action.

[9] = target: T2, human thrombin; test: Thrombin inhibitory action (IC50), end point method; format: biochemical; conditions: 37° C. for 10 minutes, read-out: thrombin 50% inhibitory concentration
Procedure: (§5) Measurement of Thrombin Inhibitory Action (IC50)
A sample solution (100 μl), 280 μl of a 100 mM tris −200 mM sodium chloride (pH 7.4) buffer and 100 μl of 1 mM S2238 (Chromogenix) solution were mixed and heated at 37° C. To the resulting mixture, 20 μl of 1 U/ml human thrombin (Sigma Chemical, dissolved in and diluted with a measuring buffer) were added, followed by heating at 37° C. for 10 minutes. To the resulting mixture, 100 μl of 1M citric acid were added and then, the absorbance at 405 nm was measured. The mixture to which only the diluting solvent was added instead of the sample was used as a blank, while the mixture to which 1M citric acid was added prior to the addition of thrombin was used as a control. The sample concentration (IC50) at which 50% of thrombin activity was inhibited was found and it was designated as an index of thrombin inhibitory action.

[10] = target: T2, human thrombin; test: Thrombin inhibitory action (IC50), reaction rate method; format: biochemical; conditions: room temperature, read-out: thrombin 50% inhibitory concentration
Procedure: as §5
In a 96-well microtiter plate, 10 μl of a sample solution, 40 μl of a 100 mM tris −200 mM sodium chloride −0.2% BSA (pH: 7.4) buffer and 10 μl of 4 U/ml human thrombin (Sigma Chemical, dissolved in and diluted with a measuring buffer) were poured, followed by the addition of 40 μl of 500 μM S2266 (product of Chromogenix). An increase (mOD/min) in the absorbance at 405 nm was measured at room temperature. From the below-described equation, an inhibitory ratio % of each sample was determined. On a logarithmic probability paper, the final concentration of the sample and inhibitory ratio were plotted along the abscissa and the ordinate, respectively, whereby a 50% inhibitory concentration (IC50) was found.
as §4

T1 sequence (P00742 235-488 limits assumed): as the sequence (P00742 235-488 limits assumed) above
T1 sequence (P00742 41-179 partner limits assumed): as the sequence (P00742 41-179 partner limits assumed) above

Molecule: CC1Cc2nc(C(=O)N3CCN(S(=O)(=O)c4ccc5cc(Cl)ccc5c4)CC3C(N)=O)sc2CN1.Cl (stereo not shown) [Example 95, 2-Carbamoyl-4-[(6-chloronaphthalen-2-yl)sulfonyl]-1-[(6-methyl-4,5,6,7-tetrahydrothiazolo[5,4-c]pyridin-2-yl)carbonyl]piperazine hydrochloride]
anti-FXa action in the plasma [6]: apparent anti-FXa action in the plasma was recognized | decrease in the number of the platelets [6]: suppressed | increase in the TAT concentration [6]: suppressed

Molecule: 2-[[4-[(6-Chloronaphthalen-2-yl)sulfonyl]piperazin-1-yl]carbonyl]-6,6-dimethyl-4,5,6,7-tetrahydrothiazolo[5,4-c]pyridinium iodide [Example 92]
IC50 [7]: 7.8 nM | CT2 (concentration at which the coagulation time of the plasma was increased twice) [8]: 0.35 µM | IC50 [9]: ≥ 200000 nM

Molecule: O=C(c1ccc(-c2cccc[n+]2[O-])cc1)N1CCN(S(=O)(=O)c2ccc3cc(Cl)ccc3c2)CC1 [Example 19, 2-[4-[[4-[(6-Chloronaphthalen-2-yl)sulfonyl]piperazin-1-yl]carbonyl]phenyl]pyridine N-oxide]
IC50 [5]: 72 nM | IC50 [10]: 1900 nM

Now from value to molecule, other results behind:

Ki [1]: 10.9 nM | Ki [2]: 3300 nM
Molecule: C[N+]1([O-])CCc2nc(C(=O)N3CCN(S(=O)(=O)c4ccc5cc(Cl)ccc5c4)CC3)sc2C1 (stereo not shown) [Example 93]

anti-FXa activity in the plasma [4]: 70%
Molecule: Cl.O=C(C1CC=C(c2ccncc2)CC1)N1CCN(S(=O)(=O)c2ccc3cc(Cl)ccc3c2)CC1 (racemic) [Example 110, 1-[(6-Chloronaphthalen-2-yl)sulfonyl]-4-[[(1RS)-4-(pyridin-4-yl)-3-cyclohexene]carbonyl]piperazine hydrochloride]
extension of the prothrombin time (ratio after/before administration) [3]: 1.18 times

IC50 [5]: 125 nM
Molecule: O=C(c1ccc(-c2cc[n+]([O-])cc2)cc1)N1CCN(S(=O)(=O)c2ccc3cc(Cl)ccc3c2)CC1 [Example 6, 4-[4-[[4-[(6-Chloronaphthalen-2-yl)sulfonyl]piperazin-1-yl]carbonyl]phenyl]pyridine N-oxide]
